According to patent US20110009628A1, “Compounds and Compositions for Modulating Lipid Levels and Methods of Preparing Same” (priority 2009, published 2011):

Tested on: LDLR mRNA expression in HepG2 cells
Experiment: LDLR mRNA expression in HepG2 cells, quantitative real-time RT-PCR (Example 7)
Type: cell-based, human
Details: dose less than or equal to 10 μM, 24 hours
Protocol: In yet another experiment, HepG2 cells were treated with various compounds for 24 hours at the indicated doses. Total RNA was isolated and 2 μg was used to generate cDNA in a reaction containing random primers and M-MLV at 37° C. for 1 hour in a volume of 25 μL. Real-time PCR was performed on the cDNA using MCEP REALPLEX 2 SYSTEM (Eppendorf) and Universal MasterMix (Applied Biosystems). Human LDLR and GAPDH Pre-Developed TaqMan Assay Reagents (Applied Biosystems) were used to assess the levels of mRNA expressions in HepG2. The levels of LDLR mRNA were normalized to that of GAPDH. Each RNA samples was assayed in triplicate. The abundance of LDLR mRNA in untreated cells was defined as 1, and the amounts of LDLR mRNA from compound-treated cells were plotted relative to that value in FIG. 2B. The data shown are mean±s.d.
Activities of some compounds of Formulas I, II and EE on LDLR mRNA expression were determined. HepG2 cells were treated with new compounds individually at a dose less than or equal to 10 μM for 24 hours. […] In these experiments, berberine chloride was included for comparison.

Question: For `COc1ccc2c(c1OS(=O)(=O)c1ccc(C(F)(F)F)cc1)CN1CCc3cc4c(cc3C1C2)OCO4` (stereo not drawn) [Compound 85, 9-(4-trifluoromethyl-benzenesulfonyloxy)-10-methoxy-5,8,13,13a-tetrahydro-6H-[1,3]dioxolo[4,5-g]isoquino[3,2-a]isoquinoline], which “Activity on LDLR mRNA expression (Fold of control)” value (from here on “Activity … (Fold of control)”) is on record?
Answer: The value was 1.42 ± 0.30 Fold of control.

Question: How did the “Activity … (Fold of control)” value turn out when `COc1ccc2c(c1Oc1ncc([N+](=O)[O-])cc1C)CN1CCc3cc4c(cc3C1C2)OCO4` (stereo not drawn) [Compound 94, 10-methoxy-9-(3-methyl-5-nitro(2-pyridyl)oxy)-5,6,7,8,13,13a-hexahydro-2H-1,3-dioxolano[4,5-g]isoquinolino[3,2-a]isoquinoline] was run?
Answer: Its value is 1.22 ± 0.18 Fold of control.

Question: How did the “Activity … (Fold of control)” value turn out when `COc1ccc2c(c1OS(=O)(=O)c1cccnc1)CN1CCc3cc4c(cc3C1C2)OCO4` (stereo not drawn) [Compound 101, 10-methoxy-5,6,7,8,13,13a-hexahydro-2H-1,3-dioxolano [4,5-g]isoquinolino[3,2-a]isoquinolin-9-yl pyridine-3-sulfonate] was run?
Answer: The value was 1.97 ± 0.00 Fold of control.

Question: With `COc1ccc2c(c1OCCN1CCOCC1)CN1CCc3cc4c(cc3C1C2)OCO4` (stereo not drawn) [Compound 88, 9-O-2-(1′-morpholine-ethyl)-10-methoxy-5,8,13,13a-tetrahydro-6H-[1,3]dioxolo[4,5-g]isoquino[3,2-a]isoquinoline] as the compound, how does the “Activity … (Fold of control)” value read?
Answer: The value was 1.93 ± 0.24 Fold of control.

Question: With `COc1ccc2c(c1OS(=O)(=O)c1ccc(F)cc1F)CN1CCc3cc4c(cc3C1C2)OCO4` (stereo not drawn) [Compound 59, 10-methoxy-5,6,7,8,13,13a-hexahydro-2H-1,3-dioxolano[4,5-g]isoquinolino[3,2-a]isoquinolin-9-yl 2,4-difluorobenzenesulfonate] as the compound, how does the “Activity … (Fold of control)” value read?
Answer: Its value is 3.73 ± 0.10 Fold of control.

Question: Which “Activity … (Fold of control)” value does the source give for `COc1ccc2c(c1OS(=O)(=O)c1cccc3cccnc13)CN1CCc3cc4c(cc3C1C2)OCO4` (stereo not drawn) [Compound 66, 10-methoxy-5,6,7,8,13,13a-hexahydro-2H-1,3-dioxolano[4,5-g]isoquinolino[3,2-a]isoquinolin-9-yl quinoline-8-sulfonate] here?
Answer: Its value is 2.54 ± 0.06 Fold of control.

Question: For `COc1ccc2c(c1OS(=O)(=O)c1ccc(F)c(F)c1)CN1CCc3cc4c(cc3C1C2)OCO4` (stereo not drawn) [Compound 53, 10-methoxy-5,6,7,8,13,13a-hexahydro-2H-1,3-dioxolano[4,5-g]isoquinolino[3,2-a]isoquinolin-9-yl 3,4-difluorobenzenesulfonate], which “Activity … (Fold of control)” value is on record?
Answer: Its value is 3.96 ± 0.40 Fold of control.

Question: Which “Activity … (Fold of control)” value does the source give for `COc1cc2c(cc1OC)C1Cc3ccc(OC)c(OCc4ccccc4)c3CN1CC2` (stereo not drawn) [Compound 64, 2,3,10-trimethoxy-9-(phenylmethoxy)-5,6,7,8,13,13a-hexahydroisoquinolino[3,2-a]isoquinoline] here?
Answer: Its value is 2.82 ± 0.45 Fold of control.

Question: For `COc1ccc2c(c1OS(=O)(=O)c1sc(NC(C)=O)nc1C)CN1CCc3cc4c(cc3C1C2)OCO4` (stereo not drawn) [Compound 93, 10-methoxy-5,6,7,8,13,13a-hexahydro-2H-1,3-dioxolano [4,5-g]isoquinolino[3,2-a]isoquinolin-9-yl 2-(acetylamino)-4-methyl-1,3-thiazole-5-sulfonate], which “Activity … (Fold of control)” value is on record?
Answer: The value was 1.42 ± 0.16 Fold of control.

Question: `COc1ccc(S(=O)(=O)Oc2c(OC)ccc3c2CN2CCc4cc5c(cc4C2C3)OCO5)cc1OC` (stereo not drawn) [Compound 86, 9-(3,4-dimethoxy-benzenesulfonyloxy)-10-methoxy-5,8,13,13a-tetrahydro-6H-[1,3]dioxolo[4,5-g]isoquino[3,2-a]isoquinoline] was tested. Which “Activity … (Fold of control)” value did it give?
Answer: The value was 2.48 ± 0.62 Fold of control.

Question: Which “Activity … (Fold of control)” value does the source give for `COc1ccc2c(c1OS(=O)(=O)c1ccc(C)cc1)CN1CCc3cc4c(cc3C1C2)OCO4` (stereo not drawn) [Compound 57, 10-methoxy-5,6,7,8,13,13a-hexahydro-2H-1,3-dioxolano[4,5-g]isoquinolino[3,2-a]isoquinolin-9-yl 4-methylbenzenesulfonate] here?
Answer: Its value is 2.62 ± 0.17 Fold of control.

Question: For `COc1ccc2c(c1OS(=O)(=O)c1cccc3c(N(C)C)cccc13)CN1CCc3cc4c(cc3C1C2)OCO4` (stereo not drawn) [Compound 89, 10-methoxy-5,6,7,8,13,13a-hexahydro-2H-1,3-dioxolano [4,5-g]isoquinolino[3,2-a] isoquinolin-9-yl 5-(dimethylamino)naphthalene-sulfonate], which “Activity … (Fold of control)” value is on record?
Answer: Its value is 1.92 ± 0.40 Fold of control.

Question: How did the “Activity … (Fold of control)” value turn out when `COc1ccc2c(c1OS(=O)(=O)c1cccc(F)c1)CN1CCc3cc4c(cc3C1C2)OCO4` (stereo not drawn) [Compound 52, 10-methoxy-5,6,7,8,13,13a-hexahydro-2H-1,3-dioxolano[4,5-g]isoquinolino[3,2-a]isoquinolin-9-yl 3-fluorobenzenesulfonate] was run?
Answer: The value was 3.63 ± 0.17 Fold of control.

Question: `CCOC(=O)Oc1c(OC)ccc2c1CN1CCc3cc4c(cc3C1C2)OCO4` (stereo not drawn) [Compound 48, 10-methoxy-5,6,7,8,13,13a-hexahydro-2H-1,3-dioxolano[4,5-g]isoquinolino[3,2-a]isoquinolin-9-yl ethoxyformate] was tested. Which “Activity … (Fold of control)” value did it give?
Answer: Its value is 1.45 ± 0.15 Fold of control.

Question: For `COc1ccc2c(c1Oc1ccc([N+](=O)[O-])cn1)CN1CCc3cc4c(cc3C1C2)OCO4` (stereo not drawn) [Compound 96, 10-methoxy-9-(5-nitro(2-pyridyl)oxy)-5,6,7,8,13,13a-hexahydro-2H-1,3-dioxolano [4,5-g]isoquinolino[3,2-a]isoquinoline], which “Activity … (Fold of control)” value is on record?
Answer: The value was 1.33 ± 0.05 Fold of control.

Question: How did the “Activity … (Fold of control)” value turn out when `COc1ccc2c(c1OC(=O)Nc1ccccc1)CN1CCc3cc4c(cc3C1C2)OCO4` (stereo not drawn) [Compound 61, (10-methoxy(5,6,7,8,13,13a-hexahydro-2H-1,3-dioxolano[4,5-g]isoquinolino[3,2-a]isoquinolin-9-yloxy))-N-benzamide] was run?
Answer: The value was 1.33 ± 0.53 Fold of control.

Question: For `COc1ccc2c(c1OS(=O)(=O)c1ccc([N+](=O)[O-])cc1)CN1CCc3cc4c(cc3C1C2)OCO4` (stereo not drawn) [Compound 65, 10-methoxy-5,6,7,8,13,13a-hexahydro-2H-1,3-dioxolano[4,5-g]isoquinolino[3,2-a]isoquinolin-9-yl 4-nitrobenzenesulfonate], which “Activity … (Fold of control)” value is on record?
Answer: Its value is 2.58 ± 0.46 Fold of control.

Question: For `COc1ccc2c(c1)CN1CCc3cc4c(cc3C1C2)OCO4` (stereo not drawn) [Compound 92, 10-methoxy-5,6,7,8,13,13a-hexahydro-2H-1,3-dioxolano[4,5-g]isoquinolino[3,2-a]isoquinoline], which “Activity … (Fold of control)” value is on record?
Answer: The value was 1.52 ± 0.07 Fold of control.

Question: For `COc1cc2c(cc1OCc1ccccc1)CCN1Cc3c(ccc(OC)c3OS(=O)(=O)c3ccccc3)CC21` (stereo not drawn) [Compound 95, 2,10-dimethoxy-3-(phenylmethoxy)-5,6,7,8,13,13a-hexahydroisoquinolino[2,1-b]isoquinolin-9-yl benzenesulfonate], which “Activity … (Fold of control)” value is on record?
Answer: Its value is 1.43 ± 0.04 Fold of control.

Question: `COc1ccc2c(c1OS(=O)(=O)c1cccc(C)c1)CN1CCc3cc4c(cc3C1C2)OCO4` (stereo not drawn) [Compound 60, 10-methoxy-5,6,7,8,13,13a-hexahydro-2H-1,3-dioxolano[4,5-g]isoquinolino[3,2-a]isoquinolin-9-yl 3-methylbenzenesulfonate] was tested. Which “Activity … (Fold of control)” value did it give?
Answer: The value was 3.46 ± 0.75 Fold of control.

Question: Which “Activity … (Fold of control)” value does the source give for `COc1ccc2c(c1OS(=O)(=O)c1ccc(F)cc1)CN1CCc3cc4c(cc3C1C2)OCO4` (stereo not drawn) [Compound 58, 10-methoxy-5,6,7,8,13,13a-hexahydro-2H-1,3-dioxolano[4,5-g]isoquinolino[3,2-a]isoquinolin-9-yl 4-fluorobenzenesulfonate] here?
Answer: The value was 3.90 ± 0.01 Fold of control.
